Experimental data reported in patent US20220152188A1, “TLR4-TLR7 LIGAND FORMULATIONS AS VACCINE ADJUVANTS” (The Regents of the University of California, priority 2019, published 2022).

Assays:
Format in all cases: cell-based
Conditions in all cases: Compound 1 = 100
IL-8 = assay: IL-8, human (Tables 1-3)
IP-10 = assay: IP-10, mouse (Tables 1-3)
TLR4 [1] = target: TLR4 (Homo sapiens, UniProt O00206+Q9Y6Y9); assay: TLR4, human (Tables 1-3)
IL-6 = assay: IL-6, mouse (Tables 1-3)
TLR4 [2] = target: T1, TLR4 (Mus musculus, UniProt Q9JHF9+Q9QUK6); assay: TLR4, mouse (Tables 1-3)
T1 sequence (Q9QUK6 26-835): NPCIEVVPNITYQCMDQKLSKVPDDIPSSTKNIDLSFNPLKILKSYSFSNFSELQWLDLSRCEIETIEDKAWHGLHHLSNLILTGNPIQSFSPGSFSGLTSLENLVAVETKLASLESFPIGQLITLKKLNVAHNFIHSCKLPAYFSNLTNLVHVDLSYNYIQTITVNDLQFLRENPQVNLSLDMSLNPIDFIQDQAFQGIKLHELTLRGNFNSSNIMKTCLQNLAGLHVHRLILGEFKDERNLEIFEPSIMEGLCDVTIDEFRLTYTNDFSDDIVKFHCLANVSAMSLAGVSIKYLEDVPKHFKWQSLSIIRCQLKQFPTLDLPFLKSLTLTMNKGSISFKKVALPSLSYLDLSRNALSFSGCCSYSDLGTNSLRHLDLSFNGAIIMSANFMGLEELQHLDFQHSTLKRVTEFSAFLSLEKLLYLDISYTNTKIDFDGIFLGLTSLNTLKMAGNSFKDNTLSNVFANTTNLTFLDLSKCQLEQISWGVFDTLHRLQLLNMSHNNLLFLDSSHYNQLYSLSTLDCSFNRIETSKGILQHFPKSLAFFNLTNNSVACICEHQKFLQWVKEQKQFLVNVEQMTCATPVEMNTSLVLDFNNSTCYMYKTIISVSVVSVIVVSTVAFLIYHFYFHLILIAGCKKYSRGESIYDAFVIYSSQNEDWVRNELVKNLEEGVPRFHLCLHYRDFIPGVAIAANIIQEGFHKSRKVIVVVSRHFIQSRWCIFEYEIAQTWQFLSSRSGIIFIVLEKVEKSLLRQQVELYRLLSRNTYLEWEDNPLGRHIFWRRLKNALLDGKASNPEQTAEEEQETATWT
T1 sequence (Q9JHF9 19-160): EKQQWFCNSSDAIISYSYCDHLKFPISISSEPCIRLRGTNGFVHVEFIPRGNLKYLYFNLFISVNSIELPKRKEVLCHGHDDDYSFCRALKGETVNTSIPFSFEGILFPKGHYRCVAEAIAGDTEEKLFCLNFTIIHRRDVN

[3] = Table 1, R^3 series, footnotes not given
Also: test concentration or dose not given here.

TLR4 (Homo sapiens, UniProt O00206+Q9Y6Y9), sequence (O00206 24-839): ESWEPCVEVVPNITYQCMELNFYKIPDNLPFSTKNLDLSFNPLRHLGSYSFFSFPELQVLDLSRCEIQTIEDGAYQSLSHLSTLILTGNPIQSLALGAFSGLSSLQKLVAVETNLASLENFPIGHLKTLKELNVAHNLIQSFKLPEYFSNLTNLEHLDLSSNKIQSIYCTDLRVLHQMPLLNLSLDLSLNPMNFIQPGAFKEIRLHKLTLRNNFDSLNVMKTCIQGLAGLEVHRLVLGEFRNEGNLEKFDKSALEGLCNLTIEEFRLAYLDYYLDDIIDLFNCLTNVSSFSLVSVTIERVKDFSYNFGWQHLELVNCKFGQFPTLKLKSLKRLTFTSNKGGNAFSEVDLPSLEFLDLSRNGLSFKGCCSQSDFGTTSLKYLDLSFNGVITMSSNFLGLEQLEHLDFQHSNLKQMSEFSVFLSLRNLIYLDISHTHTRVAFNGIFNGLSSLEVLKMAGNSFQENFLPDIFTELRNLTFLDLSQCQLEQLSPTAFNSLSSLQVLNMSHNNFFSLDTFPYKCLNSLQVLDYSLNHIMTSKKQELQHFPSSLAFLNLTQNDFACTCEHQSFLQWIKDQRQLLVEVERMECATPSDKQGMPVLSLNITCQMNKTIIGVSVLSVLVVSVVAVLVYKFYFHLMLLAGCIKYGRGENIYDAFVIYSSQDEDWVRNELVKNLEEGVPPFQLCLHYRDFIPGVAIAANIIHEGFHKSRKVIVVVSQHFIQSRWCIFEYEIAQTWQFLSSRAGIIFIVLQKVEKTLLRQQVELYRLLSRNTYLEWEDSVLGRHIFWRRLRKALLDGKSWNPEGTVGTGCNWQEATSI
TLR4 (Homo sapiens, UniProt O00206+Q9Y6Y9), sequence (Q9Y6Y9 17-160 limits assumed): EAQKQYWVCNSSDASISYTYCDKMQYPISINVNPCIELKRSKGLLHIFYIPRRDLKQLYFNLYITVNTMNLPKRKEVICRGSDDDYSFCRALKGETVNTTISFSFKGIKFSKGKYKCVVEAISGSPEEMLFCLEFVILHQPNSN

Row | SMILES | human IL-8 (IL-8; Table 2, R^2 series) | mouse IP-10 (IP-10; Table 2, R^2 series) | human TLR4 (TLR4 [1]; Table 2, R^2 series) | mouse IL-6 (IL-6; Table 2, R^2 series) | mouse TLR4 (TLR4 [2]; Table 2, R^2 series) | human IL-8 (IL-8; Table 3, R^1 series) | mouse IP-10 (IP-10; Table 3, R^1 series) | human TLR4 (TLR4 [1]; Table 3, R^1 series) | mouse IL-6 (IL-6; Table 3, R^1 series) | mouse TLR4 (TLR4 [2]; Table 3, R^1 series) | human IL-8 (IL-8; Table 1, R^3 series) | mouse IP-10 (IP-10; Table 1, R^3 series) | human TLR4 (TLR4 [1]; Table 1, R^3 series) | mouse IL-6 (IL-6; [3]) | mouse TLR4 (TLR4 [2]; Table 1, R^3 series)
1 | O=C(CSc1nc2c([nH]c3ccccc32)c(=O)n1-c1ccccc1)NCC1CCCO1 (stereo not drawn) [Compound 33] | 8 | 54 | 13 | 23 | 21 | – | – | – | – | – | – | – | – | – | –
2 | O=C(CSc1nc2c([nH]c3ccccc32)c(=O)n1-c1ccccc1)Nc1ccc2ccccc2c1 [Compound 18] | <1 | <1 | 21 | <1 | 2 | – | – | – | – | – | – | – | – | – | –
3 | CCNC(=O)CSc1nc2c([nH]c3ccccc32)c(=O)n1-c1ccccc1 [Compound 22] | 4 | <1 | 8 | <1 | <1 | – | – | – | – | – | – | – | – | – | –
4 | O=C(CSc1nc2c([nH]c3ccccc32)c(=O)n1CCc1ccccc1)NC1CCCCC1 [Compound 40] | – | – | – | – | – | 5 | <1 | 1 | <1 | 1 | – | – | – | – | –
5 | O=C(CSc1nc2c([nH]c3ccccc32)c(=O)n1-c1ccccc1)NC1CCCCC1 [Compound 1] | 100 | 100 | 100 | 100 | 100 | 100 | 100 | 100 | 100 | 100 | 100 | 100 | 100 | 100 | 100
6 | CCCC(C)NC(=O)CSc1nc2c([nH]c3ccccc32)c(=O)n1-c1ccccc1 (stereo not drawn) [Compound 30] | 6 | 55 | 13 | 12 | 17 | – | – | – | – | – | – | – | – | – | –
7 | CCCCCCNC(=O)CSc1nc2c([nH]c3ccccc32)c(=O)n1-c1ccccc1 [Compound 25] | 7 | <1 | 8 | <1 | 4 | – | – | – | – | – | – | – | – | – | –
8 | CC(C)CNC(=O)CSc1nc2c([nH]c3ccccc32)c(=O)n1-c1ccccc1 [Compound 26] | 11 | 53 | 21 | 44 | 24 | – | – | – | – | – | – | – | – | – | –
9 | CC(C)CCNC(=O)CSc1nc2c([nH]c3ccccc32)c(=O)n1-c1ccccc1 [Compound 27] | 53 | 62 | 38 | 61 | 56 | – | – | – | – | – | – | – | – | – | –
10 | O=C(CSc1nc2c([nH]c3ccccc32)c(=O)n1-c1ccccc1)Nc1ccc(F)cc1 [Compound 14] | 107 | 70 | 108 | 103 | 81 | – | – | – | – | – | – | – | – | – | –
11 | CCCCCCCCCCCCn1c2ccccc2c2nc(SCC(=O)NC3CCCCC3)n(-c3ccccc3)c(=O)c21 [Compound 50] | – | – | – | – | – | – | – | – | – | – | <1 | <1 | 10 | <1 | 4
12 | O=C(CSc1nc2c([nH]c3ccccc32)c(=O)n1-c1ccccc1)Nc1ccccc1F [Compound 15] | 61 | 54 | 71 | 36 | 43 | – | – | – | – | – | – | – | – | – | –
13 | O=C(CSc1nc2c([nH]c3ccccc32)c(=O)n1-c1ccccc1)Nc1nccs1 [Compound 21] | 5 | <1 | 12 | 1 | 2 | – | – | – | – | – | – | – | – | – | –
14 | O=C(CSc1nc2c([nH]c3ccccc32)c(=O)n1-c1ccccc1)Nc1ccccc1 [Compound 13] | 15 | 44 | 31 | 11 | 21 | – | – | – | – | – | – | – | – | – | –
15 | O=C(CSc1nc2c([nH]c3ccccc32)c(=O)n1C1CCCCC1)NC1CCCCC1 [Compound 36] | – | – | – | – | – | 27 | 61 | 40 | 71 | 56 | – | – | – | – | –
16 | O=C(CSc1nc2c([nH]c3ccccc32)c(=O)n1-c1ccccc1)Nc1ccc2cn[nH]c2c1 [Compound 20] | 7 | <1 | <1 | 3 | <1 | – | – | – | – | – | – | – | – | – | –
17 | CCC(CC)NC(=O)CSc1nc2c([nH]c3ccccc32)c(=O)n1-c1ccccc1 [Compound 31] | <1 | 26 | 11 | 10 | 8 | – | – | – | – | – | – | – | – | – | –
18 | CCC(C)CCNC(=O)CSc1nc2c([nH]c3ccccc32)c(=O)n1-c1ccccc1 (stereo not drawn) [Compound 29] | 23 | 45 | 17 | 30 | 29 | – | – | – | – | – | – | – | – | – | –
19 | N#CCn1c2ccccc2c2nc(SCC(=O)NC3CCCCC3)n(-c3ccccc3)c(=O)c21 [Compound 51] | – | – | – | – | – | – | – | – | – | – | 30 | 64 | 19 | 98 | 55
20 | Cc1ccc(-n2c(SCC(=O)NC3CCCCC3)nc3c([nH]c4ccccc43)c2=O)cc1 [Compound 38] | – | – | – | – | – | 6 | <1 | 2 | <1 | 2 | – | – | – | – | –
21 | CC(C)(C)CCNC(=O)CSc1nc2c([nH]c3ccccc32)c(=O)n1-c1ccccc1 [Compound 28] | 95 | 85 | 72 | 99 | 126 | – | – | – | – | – | – | – | – | – | –
22 | O=C(CSc1nc2c([nH]c3ccccc32)c(=O)n1-c1ccccc1)Nc1cccc(F)c1 [Compound 16] | 13 | 45 | 39 | 14 | 11 | – | – | – | – | – | – | – | – | – | –
23 | O=C(CSc1nc2c([nH]c3ccccc32)c(=O)n1-c1ccc(F)cc1)NC1CCCCC1 [Compound 37] | – | – | – | – | – | 5 | 72 | 51 | 48 | 41 | – | – | – | – | –
24 | O=C(CSc1nc2c([nH]c3ccccc32)c(=O)n1-c1ccccc1)NC1CCCCCCC1 [Compound 10] | 73 | 98 | 64 | 114 | 95 | – | – | – | – | – | – | – | – | – | –
25 | O=C(CSc1nc2c([nH]c3ccccc32)c(=O)n1-c1ccccc1)NCc1ccco1 [Compound 19] | 15 | 26 | 27 | 18 | 5 | – | – | – | – | – | – | – | – | – | –
